Source: patent publication US20020150975A1 (priority 2000, published 2002)

system: SCLC cells; assay type: cell-based, human

Compound | effect on proliferation / rate of growth of SCLC cells
CN1CCCC1c1cccnc1 (stereo not drawn) [nicotine] | increase the rate of growth
alpha-bungarotoxin | slow down or suppress proliferation
alpha-cobratoxin | slow down or suppress proliferation
